Like-named read-outs stand apart in the source and are kept apart here.
Legend:
[1] = biological target: GSK3α (GST-full length GSK3α) (Homo sapiens (Human), UniProt P49840); experiment: GSK3α TR-FRET kinase assay; format: biochemical
How it was run: (§1)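 Readout: anti-pSer641 Tb antibody/streptavidin-d2 signal after 60 min, expressed as 665/615 ratio and fitted versus log concentration for IC50. Enzyme: 1 nM GST-GSK3 (α or β), compound-preincubated 30 min. Conditions: pH 7.5 Tris buffer with MgCl2, DTT, BSA; ATP at 4 or 2 μM, or 1 mM; 100 min.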

[2] = biological target: GSK3b (GST-full length GSK3b) (Homo sapiens (Human), UniProt P49841); experiment: GSK3b TR-FRET kinase assay; format: biochemical
Chain of GSK3b (GST-full length GSK3b) (P49841 whole entry): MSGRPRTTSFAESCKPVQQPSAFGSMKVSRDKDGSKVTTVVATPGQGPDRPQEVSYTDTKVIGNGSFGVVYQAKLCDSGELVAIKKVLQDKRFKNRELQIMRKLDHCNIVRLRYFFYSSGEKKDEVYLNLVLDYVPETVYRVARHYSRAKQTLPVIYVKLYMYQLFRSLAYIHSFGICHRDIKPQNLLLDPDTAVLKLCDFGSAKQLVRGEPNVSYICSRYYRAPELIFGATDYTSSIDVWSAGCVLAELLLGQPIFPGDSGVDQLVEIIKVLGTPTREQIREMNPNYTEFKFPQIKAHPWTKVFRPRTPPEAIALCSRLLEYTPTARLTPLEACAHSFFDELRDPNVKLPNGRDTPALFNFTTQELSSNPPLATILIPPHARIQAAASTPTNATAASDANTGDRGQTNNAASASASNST
How it was run: as §1

[3] = 1 nM GSK3α, 4 μM ATP, 30 minute preincubation, Table 16, read-out: GSK3-A TR-FRET BIOCHEMICAL (TR-FRET), IC50
[4] = 1 nM GSK3b, 2 μM ATP, 30 minute preincubation, Table 16, read-out: GSK3-B TR-FRET BIOCHEMICAL (TR-FRET), IC50
[5] = 1 nM GSK3α, 4 μM ATP, 30 minute preincubation, geometric mean, read-out: GSK3-A TR-FRET BIOCHEMICAL (TR-FRET), GMean, IC50
[6] = 1 nM GSK3b, 2 μM ATP, 30 minute preincubation, geometric mean, read-out: GSK3-B TR-FRET BIOCHEMICAL (TR-FRET), GMean, IC50
[7] = 1 nM GSK3α, 4 μM ATP, 30 minute preincubation, Table 16, read-out: GSK3-A TR-FRET BIOCHEMICAL (TR-FRET)
[8] = 1 nM GSK3b, 2 μM ATP, 30 minute preincubation, Table 16, read-out: GSK3-B TR-FRET BIOCHEMICAL (TR-FRET)
[9] = read-out: GSK3-A (TR-FRET 1 mM ATP), GMean, IC50, 1 mM ATP, geometric mean
[10] = read-out: GSK3-B (TR-FRET 1 mM ATP), GMean, IC50, 1 mM ATP, geometric mean
[11] = 1 nM GSK3α, 4 μM ATP, 30 minute preincubation, read-out: GSK3-A TR-FRET BIOCHEMICAL (TR-FRET), IC50
[12] = 1 nM GSK3b, 2 μM ATP, 30 minute preincubation, read-out: GSK3-B TR-FRET BIOCHEMICAL (TR-FRET), IC50

Chain of GSK3α (GST-full length GSK3α) (P49840 whole entry): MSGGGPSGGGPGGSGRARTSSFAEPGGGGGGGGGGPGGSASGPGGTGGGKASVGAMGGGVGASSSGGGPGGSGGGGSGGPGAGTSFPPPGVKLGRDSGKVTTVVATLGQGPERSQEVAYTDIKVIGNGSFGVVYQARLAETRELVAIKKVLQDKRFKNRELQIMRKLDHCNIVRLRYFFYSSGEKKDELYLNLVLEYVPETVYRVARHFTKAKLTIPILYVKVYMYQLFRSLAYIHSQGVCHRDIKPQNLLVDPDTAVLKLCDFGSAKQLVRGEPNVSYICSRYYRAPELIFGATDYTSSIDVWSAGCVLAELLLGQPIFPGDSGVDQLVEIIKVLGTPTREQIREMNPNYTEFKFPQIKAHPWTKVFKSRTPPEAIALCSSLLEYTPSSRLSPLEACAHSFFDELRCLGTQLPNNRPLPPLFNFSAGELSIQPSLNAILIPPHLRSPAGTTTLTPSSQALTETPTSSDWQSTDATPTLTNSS

CCC1(c2cccc(C3CCOC(C)(C)C3)c2)C2=C(CC(C)(C)CC2=O)Nc2n[nH]cc21 (centres unmarked) [Compound 912089]
IC50 [1, 3]: 100 to 1000 nM | IC50 [2, 4]: 100 to 1000 nM

CC[C@]1(c2cccc(-c3cnn(C)c3C)c2)C2=C(CC(C)(C)NC2=O)Nc2n[nH]c(C(F)(F)F)c21 [Compound 947807]
IC50 [1, 5]: ≤ 100 nM | IC50 [2, 6]: 100 to 1000 nM

CCC1(c2cccc(S(=O)(=O)C3COC3)c2)C2=C(CC(C)(C)CC2=O)Nc2n[nH]cc21 (centres unmarked) [Compound 944017]
IC50 [1, 7]: ≤ 100 nM | IC50 [2, 8]: ≤ 100 nM

COc1cccc(S(=O)(=O)N2CCC3(CC2)C2=C(CC(C)(C)CC2=O)Nc2n[nH]cc23)c1F [Compound 945656]
IC50 [1, 7]: ≤ 100 nM | IC50 ([1]; GSK3-A (TR-FRET 1 mM ATP), GMean, IC50, 1 mM ATP, geometric mean): ≤ 100 nM | IC50 [2, 8]: ≤ 100 nM | IC50 ([2]; GSK3-B (TR-FRET 1 mM ATP), GMean, IC50, 1 mM ATP, geometric mean): 100 to 1000 nM

CCC1(c2cccc(N3CCC3(C)C)c2)C2=C(CC(C)(C)CC2=O)Nc2n[nH]cc21 (centres unmarked) [Compound 913141]
IC50 [1, 3]: 100 to 1000 nM | IC50 [2, 4]: 1000 to 5000 nM

CCC1(c2cccc(C(F)(F)F)c2)C2=C(CNC2=O)Nc2n[nH]cc21 (centres unmarked) [Compound 917158]
IC50 [1, 7]: 100 to 1000 nM | IC50 [2, 8]: 1000 to 5000 nM

CCC1(c2cccc(-c3cccnc3)c2)C2=C(CC(C)(C)CC2=O)Nc2n[nH]cc21 (centres unmarked) [Compound 791272]
IC50 [1, 5]: ≤ 100 nM | IC50 [2, 6]: 100 to 1000 nM

CCC1(c2cccc(-c3c(C)cncc3C)c2)C2=C(CC(C)(C)CC2=O)Nc2n[nH]cc21 (centres unmarked) [Compound 947658]
IC50 [1, 9]: ≤ 100 nM | IC50 [2, 10]: 100 to 1000 nM

CC[C@@]1(c2ccccc2)C2=C(CC(C)(C)C(O)C2=O)Nc2n[nH]cc21 (some centres unmarked) [Compound 946056]
IC50 [1, 7]: 100 to 1000 nM | IC50 [2, 8]: > 5000 nM

CC[C@]1(c2cccc(C(F)(F)F)c2)C2=C(CCN(c3ccc(F)cc3)C2=O)Nc2n[nH]cc21 [Compound 948225]
IC50 [1, 5]: 1000 to 5000 nM | IC50 [2, 6]: > 5000 nM

CCC1(c2cccc(-c3cnn4c3CCCC4)c2)C2=C(CC(C)(C)NC2=O)Nc2n[nH]cc21 (centres unmarked) [Compound 945603]
IC50 [1, 11]: ≤ 100 nM | IC50 [2, 12]: 100 to 1000 nM

CCC1(c2cccc(S(=O)(=O)C3CC3)c2)C2=C(CC(C)(C)CC2=O)Nc2n[nH]cc21 (centres unmarked) [Compound 909204]
IC50 [1, 3]: ≤ 100 nM | IC50 [2, 4]: ≤ 100 nM | IC50 [2, 10]: 100 to 1000 nM

CCC1(c2cccc(S(C)(=O)=O)c2)C2=C(CC(C)(C)NC2=O)Nc2n[nH]c(C(F)(F)F)c21 (centres unmarked) [Compound 947799]
IC50 [1, 5]: ≤ 100 nM | IC50 [2, 6]: ≤ 100 nM

CC1(C)CC(=O)C2=C(C1)Nc1n[nH]c(Br)c1[C@@]21CCc2c(F)cccc21 [Compound 806938]
IC50 [1, 5]: 100 to 1000 nM | IC50 [2, 6]: 1000 to 5000 nM

CCC1(c2cccc(-c3ccnc4cc(F)c(F)cc34)c2)C2=C(CC(C)(C)NC2=O)Nc2n[nH]cc21 (centres unmarked) [Compound 948638]
IC50 [1, 5]: > 5000 nM | IC50 [2, 6]: > 5000 nM

CC1(C)CC(=O)C2=C(C1)Nc1n[nH]cc1C21COC2(CCC2)C1 (centres unmarked) [Compound 911973]
IC50 [1, 11]: 100 to 1000 nM | IC50 [2, 12]: 100 to 1000 nM

CC1(C)CC(=O)C2=C(C1)Nc1n[nH]cc1C21CN(CCc2ccccc2)C1 [Compound 929441]
IC50 [1, 3]: > 5000 nM | IC50 [2, 4]: > 5000 nM

CCC1(c2cccc(-c3ccnc(C)c3)c2)C2=C(CC(C)(C)CC2=O)Nc2n[nH]c(C)c21 (centres unmarked) [Compound 913051]
IC50 [1, 3]: 100 to 1000 nM | IC50 [2, 4]: > 5000 nM

CC[C@@]1(c2ccccc2)C2=C(C[C@@H](C(F)(F)F)CC2=O)Nc2n[nH]cc21 [Compound 806607]
IC50 [1, 5]: > 5000 nM | IC50 [2, 6]: > 5000 nM

CCC1(c2cccc(-c3ccnc(C)c3)c2)C2=C(CC(C)(C)CC2=O)Nc2n[nH]cc21 (centres unmarked) [Compound 840857]
IC50 [1, 5]: ≤ 100 nM | IC50 [2, 6]: 100 to 1000 nM

CC1(C)CC(=O)C2=C(C1)Nc1n[nH]cc1[C@]2(C)c1cccc(-c2ccccc2)c1 [Compound 801367]
IC50 [1, 5]: ≤ 100 nM | IC50 [2, 6]: 100 to 1000 nM

CC1(C)CC(=O)C2=C(C1)Nc1n[nH]cc1C21COC2(CN(C(=O)C3(C)CCCC3)C2)C1 (centres unmarked) [Compound 947307]
IC50 [1, 11]: ≤ 100 nM | IC50 [2, 12]: ≤ 100 nM

COC(=O)C1CCC2(CC1)C1=C(CC(C)(C)CC1=O)Nc1n[nH]cc12 (centres unmarked) [Compound 918277]
IC50 [1, 7]: ≤ 100 nM | IC50 [2, 8]: 100 to 1000 nM

CCC1(c2cccc(Nc3ncccn3)c2)C2=C(CC(C)(C)CC2=O)Nc2n[nH]cc21 (centres unmarked) [Compound 945958]
IC50 [1, 7]: 1000 to 5000 nM | IC50 [2, 8]: > 5000 nM

CC[C@@]1(c2cc(-c3cnn(C)c3)ccc2F)C2=C(CC(C)(C)CC2=O)Nc2n[nH]cc21 [Compound 909220]
IC50 [1, 3]: ≤ 100 nM | IC50 [2, 4]: 100 to 1000 nM

CCC1(c2cccc(-c3c(C)nn(C)c3C)c2)C2=C(CC(C)(C)NC2=O)Nc2n[nH]c(C)c21 (centres unmarked) [Compound 947575]
IC50 [1, 5]: ≤ 100 nM | IC50 [2, 6]: ≤ 100 nM

CCC1(c2cccc(-c3cnco3)c2)C2=C(CC(C)(C)CC2=O)Nc2n[nH]cc21 (centres unmarked) [Compound 944025]
IC50 [1, 7]: ≤ 100 nM | IC50 [2, 8]: 100 to 1000 nM

CC1(C)CC(=O)C2=C(C1)Nc1n[nH]cc1C21CCN(S(=O)(=O)c2ccc(Cl)c(Cl)c2)CC1 [Compound 945660]
IC50 [1, 7]: ≤ 100 nM | IC50 [2, 8]: ≤ 100 nM

CC[C@@]1(c2cccc(-c3ccncc3C(F)(F)F)c2)C2=C(CC(C)(C)C2=O)Nc2n[nH]cc21 [Compound 952759]
IC50 [1, 3]: ≤ 100 nM | IC50 [1, 9]: 100 to 1000 nM | IC50 [2, 4]: ≤ 100 nM | IC50 [2, 10]: 1000 to 5000 nM

Cc1[nH]nc2c1C1(CCCCC1)C1=C(CC(C)(C)CC1=O)N2 [Compound 877288]
IC50 [1, 3]: > 5000 nM | IC50 [2, 4]: > 5000 nM

CC[C@]1(c2cccc(-c3cc(C)ncc3OC)c2)C2=C(CC(C)(C)CC2=O)Nc2n[nH]cc21 [Compound 945995]
IC50 [1, 7]: ≤ 100 nM | IC50 [1, 9]: 100 to 1000 nM | IC50 [2, 8]: ≤ 100 nM | IC50 [2, 10]: 1000 to 5000 nM

CCC1(c2cccc(-c3cnn4cccnc34)c2)C2=C(CC(C)(C)NC2=O)Nc2n[nH]cc21 (centres unmarked) [Compound 949389]
IC50 [1, 3]: 1000 to 5000 nM | IC50 [2, 4]: > 5000 nM

CC[C@@]1(c2cccc(-c3ccnn3C)c2)C2=C(Nc3n[nH]cc31)[C@H](F)C(C)(C)CC2=O [Compound 957507]
IC50 [1, 7]: ≤ 100 nM | IC50 [1, 9]: ≤ 100 nM | IC50 [2, 8]: ≤ 100 nM | IC50 [2, 10]: 1000 to 5000 nM

CCC1(c2cccc(COC)c2)C2=C(CC(C)(C)CC2=O)Nc2n[nH]cc21 (centres unmarked) [Compound 810360]
IC50 [1, 5]: ≤ 100 nM | IC50 [2, 6]: 100 to 1000 nM

CC1(C)CC(=O)C2=C(C1)Nc1n[nH]cc1C21COC2(CN(C(=O)C(F)F)C2)C1 (centres unmarked) [Compound 947485]
IC50 [1, 11]: ≤ 100 nM | IC50 [2, 12]: ≤ 100 nM

CCC1(c2cccc(S(=O)(=O)CC3CC3)c2)C2=C(CC(C)(C)NC2=O)Nc2n[nH]cc21 (centres unmarked) [Compound 948177]
IC50 [1, 5]: ≤ 100 nM | IC50 [2, 6]: 100 to 1000 nM

Cc1ccc(S(=O)(=O)N2CCC3(CC2)C2=C(CC(C)(C)CC2=O)Nc2n[nH]cc23)cc1Cl [Compound 947241]
IC50 [1, 7]: ≤ 100 nM | IC50 [2, 8]: ≤ 100 nM

CC(=O)N1CC2(C1)C[C@]1(CO2)C2=C(CC(C)(C)CC2=O)Nc2n[nH]cc21 [Compound 926861]
IC50 [1, 11]: ≤ 100 nM | IC50 [1, 9]: ≤ 100 nM | IC50 [2, 12]: ≤ 100 nM | IC50 [2, 10]: ≤ 100 nM

CCC1(c2cccc(-c3ccnc(C)c3)c2)C2=C(CC(C)CC2=O)Nc2n[nH]cc21 (centres unmarked) [Compound 932638]
IC50 [1, 3]: > 5000 nM | IC50 [2, 4]: > 5000 nM

CC[C@@]1(c2cccc(-c3cc(C)ncc3F)c2)C2=C(CC(C)(C)NC2=O)Nc2n[nH]c(C(F)(F)F)c21 [Compound 949650]
IC50 [1, 3]: ≤ 100 nM | IC50 [1, 9]: 100 to 1000 nM | IC50 [2, 4]: ≤ 100 nM | IC50 [2, 10]: 1000 to 5000 nM

CCC1(c2cccc(-c3cn(C)nc3C)c2)C2=C(CC(C)(C)CC2=O)Nc2n[nH]c(C)c21 (centres unmarked) [Compound 913034]
IC50 [1, 3]: 1000 to 5000 nM | IC50 [2, 4]: > 5000 nM
